What all share (test): relative viability (nuclei count vs DMSO), 5 days (fraction); higher = more cells survive
Compound in test [1]: CC1=CN2C(=O)C=C(N=C2C(=C1)C(C)NC3=CC=CC=C3)N4CCOCC4 [TGX 221] + Nc1ncn([C@H]2C[C@H](O)[C@@H](CO)O2)c(=O)n1 [Decitabine] (partner 2 µM)
Put shortly:
(§1)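 Lung cancer cell lines were pin-tool dosed in 1536-well plates on the day after seeding, with either a lone drug or a fixed anchor-drug dose plus five library-drug doses (not always all listed) in √10 steps. Nuclei were counted on 4× images after 5 days. Relative viability is the ratio of treated-well to vehicle-well nuclei counts, with each value a median of duplicate plates.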

Compound in test [2]: C1=CC=C(C(=C1)C2=CC=C(C=C2)C3=CSC4=C3C(=C(C(=O)N4)C#N)O)O + O=C(c1cc(Cc2n[nH]c(=O)c3ccccc23)ccc1F)N1CCN(C(=O)C2CC2)CC1 [Olaparib] (partner 8 µM)
Put shortly:
as §1

Compound in test [3]: O=C(CCCCCCNC(=O)c1cnc(N(c2ccccc2)c2ccccc2)nc1)NO [Ricolinostat] + CC1(C)CCC(c2ccc(Cl)cc2)=C(CN2CCN(c3ccc(C(=O)NS(=O)(=O)c4ccc(N[C@H](CCN5CCOCC5)CSc5ccccc5)c(S(=O)(=O)C(F)(F)F)c4)cc3)CC2)C1 [Navitoclax] (partner 0.5 µM)
Put shortly: as §1

Compound in test [4]: C1=CC=C(C(=C1)C2=CC=C(C=C2)C3=CSC4=C3C(=C(C(=O)N4)C#N)O)O + C[C@]1(O)C[C@@H](c2nc(-c3ccc4ccc(-c5ccccc5)nc4c3)c3c(N)nccn32)C1 [Linsitinib] (partner 1 µM)
The gist of the method:
as §1

On to NCI-H1792, for which the relative viability came to 0.522 in test [1] (first compound 0.08 µM); 0.479 in test [1] (first compound 0.253 µM); 0.549 in test [1] (first compound 0.8 µM); 0.454 in test [1] (first compound 2.53 µM); 0.362 in test [1] (first compound 8 µM); 0.324 in test [2] (first compound 0.253 µM). The relative viability in test [2] (first compound 0.8 µM) amounted to 0.365; in test [2] (first compound 2.53 µM) it was 0.317; in test [2] (first compound 8 µM), 0.389; in test [3] (first compound 0.08 µM) it was 0.438; in test [3] (first compound 0.253 µM) it was 0.632; in test [3] (first compound 0.8 µM) it was 0.518. The relative viability in test [3] (first compound 2.53 µM) stood at 0.654; in test [4] (first compound 0.253 µM) it was 0.436; in test [4] (first compound 0.8 µM), 0.542; in test [4] (first compound 2.53 µM), 0.474; in test [4] (first compound 8 µM), 0.317.

Values taken from the supplement of paper PMC10307832.
